Measured values published in PubChem BioAssay AID1996.
In brackets after ≈: the same amount, converted by molar mass.

conditions: buffer; pH 7.4; 200.0 µM

Row | SMILES | solubility kinetic [µg/mL]
1 | O=C(Nc1nccs1)c1cc2cc(Cl)ccc2oc1=O | 1.5 (≈ 4.89 µM)
2 | O=C(Nc1cccc(Br)c1)C1CCCC1 | > 40.2
3 | C/C(=N/OC(=O)c1ccc(Br)cc1)c1ccc(C)cc1 | < 0.7
4 | CN1C(=O)/C(=C/c2ccc(O)c([N+](=O)[O-])c2)N(C)C1=S | 4.5 (≈ 15.3 µM)
5 | Cc1ccc2[nH]c(CNC(=O)C3CCCCC3)cc2c1 | 19.6 (≈ 72.5 µM)
6 | CC(C)(Oc1ccc(Cl)cc1)C(=O)N1CCN(C(=O)c2ccco2)CC1 | > 56.5
7 | CC(c1ccccc1)N1C(=O)c2cccnc2C1=O (centres undefined) | 32.6 (≈ 129 µM)
8 | O=C(Oc1ccc(C(=S)N2CCOCC2)cc1)c1ccccc1[N+](=O)[O-] | 16.8 (≈ 45.1 µM)
9 | CN(n1cnc2ccccc2c1=O)S(C)(=O)=O | > 38
10 | CC(NS(=O)(=O)c1cc(C(F)(F)F)ccc1Cl)C(=O)N(C)C1CCN(C)CC1 (centres undefined) | > 66.3
11 | O=c1[nH]cc(S(=O)(=O)NCc2ccccc2)c(=O)[nH]1 | > 42.2
12 | O=C(N/C(=C/c1ccco1)C(=O)N1CCOCC1)c1ccc([N+](=O)[O-])cc1 | > 55.7
13 | Cc1ccc(NC(=O)c2cccs2)cc1NC(=O)c1ccc(F)cc1 | 2 (≈ 5.64 µM)
14 | Cc1ccc(/C=C/C(=O)NCCc2cccc(Cl)c2)o1 | 5.1 (≈ 17.6 µM)
15 | O=C(O)C(Sc1ccncn1)c1ccccc1 (centres undefined) | 26.4 (≈ 107 µM)
16 | COc1cc(NC(=S)N2CCCCC2C)c(OC)cc1Cl (centres undefined) | 44.7 (≈ 136 µM)
17 | Cc1ccc(N2C(=O)C3ON(c4ccccc4)C(CC(C)C)C3C2=O)cc1 (centres undefined) | 11.6 (≈ 31.8 µM)
18 | C/C(=N\NC1=NCCN1)c1ccc(N)c([N+](=O)[O-])c1 | > 39.3
19 | Cc1ccc2c(CN3CCOCC3)cc(=O)oc2c1C | > 41
20 | CCOc1cc(/C=C(\C#N)C(=O)Nc2ccccn2)ccc1O | > 46.4

Row | SMILES | solubility kinetic [µg/mL]
21 | CNc1nc(N)c([N+](=O)[O-])c(NCC2CCCO2)n1 (centres undefined) | > 40.2
22 | Cc1ccc(-c2ncns2)cc1 | 0.5 (≈ 2.84 µM)
23 | COc1ccc(NC(=O)c2cc3ccccc3cc2O)cc1 | 1.5 (≈ 5.11 µM)
24 | CSc1cccc(NC(=O)C2(S(=O)(=O)c3ccc(C)cc3)CC2)c1 | 19.9 (≈ 55.1 µM)
25 | O=[N+]([O-])c1cccc(CNC2CCCCCC2)c1 | 24.6 (≈ 99.1 µM)
26 | CCN1C(=O)Nc2cccc3cccc1c23 | 4.9 (≈ 23.1 µM)
27 | CCCC(=O)N1CCCC(c2nc(-c3cccc(OC)c3)no2)C1 (centres undefined) | > 49.4
28 | N/C(=N\OC(=O)c1ccc(Cl)cc1Cl)c1ccncc1 | 16.5 (≈ 53.2 µM)
29 | O=c1[nH]c(=O)n(C2CCCO2)cc1F (centres undefined) | 29.9 (≈ 149 µM)
30 | O=C1CCN(C(=S)NCc2ccccc2)CC1 | > 37.3
31 | COc1ccc(C(=O)CSc2cc(C)[nH]c(=O)n2)cc1 | 23.7 (≈ 81.6 µM)
32 | COC(=O)c1ccc(COc2ccc(/C=N/O)cc2)o1 | > 41.3
33 | COc1cccc(/C=C/C(=O)OCC(=O)NC2CCCCCCC2)c1 | 6.7 (≈ 19.4 µM)
34 | CCOC(=O)c1c(CC(C)C)csc1/N=C/C1=C(O)CCCC1=O | 2.3 (≈ 6.58 µM)
35 | O=C1NC(=O)C(=Cc2ccc(Sc3ccccc3)o2)C(=O)N1 | 40.5 (≈ 129 µM)
36 | COc1ccc(NC(=O)c2cccnc2)cc1 | > 34.2
37 | CN1CCN(S(=O)(=O)c2ccc(Cl)c3ccccc23)CC1 | 45.1 (≈ 139 µM)
38 | COc1ccc(Oc2ncccc2NC(=O)c2cccc(C)c2C)cc1 | 5.9 (≈ 16.9 µM)
39 | CC1(C)C2CCC1(C)C([NH2+]c1ccccc1)C2.[Cl-] (centres undefined) | < 0.6
40 | COc1ccc(-n2c(C)cc(=O)[nH]c2=O)cc1 | > 34.8

Row | SMILES | solubility kinetic [µg/mL]
41 | O=[N+]([O-])c1cc(S(=O)(=O)N2CCCC2)ccc1SCCO | > 49.9
42 | Cc1ccc(NC(=O)COC(=O)C2=COCCO2)c([N+](=O)[O-])c1 | 6.6 (≈ 20.5 µM)
43 | O=C(c1ccc(F)cc1F)N1CCCc2ccccc21 | > 41
44 | Cc1ccc(NC(=O)CN2CCOCC2)cc1Cl | > 40.3
45 | COc1ccccc1CNc1nc(C)c(C(=O)N(C)C)s1 | > 45.8
46 | O=C1c2cccc3c([N+](=O)[O-])ccc(c23)C(=O)N1O | > 38.7
47 | Cc1c(O)ccc2c(CN3CCOCC3)cc(=O)oc12 | > 41.3
48 | C=Cc1ccc(Cn2c(C(=O)O)c(C=O)c3ccccc32)cc1 | > 45.8
49 | COCCNC(=O)Cn1cc(C=C2C(=O)NC(=O)NC2=O)c2ccccc21 | 6.3 (≈ 17 µM)
50 | CC1=NCCN1CCNC(=O)Nc1cc(C)cc(C)c1 | 40 (≈ 146 µM)
51 | c1ccc(-c2cccc(-c3ccccc3)n2)cc1 | < 0.5
52 | O=[N+]([O-])c1ccc(CN2CC=C(c3ccccc3)CC2)cc1 | 6.8 (≈ 23.1 µM)
53 | O=C(c1cccs1)N1CCN(c2ccccc2)CC1 | > 40.9
54 | Cc1ccccc1-n1c(=O)n(Cc2ccco2)c(=O)c2[nH]cnc21 | > 48.3
55 | O=C(CNS(=O)(=O)c1ccc(F)cc1)N1CCOCC1 | > 45.3
56 | COc1ccc(CN2CCSc3sccc3C2=O)cc1 | > 45.8
57 | CC1(C)CC(NC(=O)C2CCCCC2)CC(C)(C)N1 | 35.2 (≈ 132 µM)
58 | COC(=O)c1ccc(C(=O)OC)c(NC(=O)c2cccnc2)c1 | 2.3 (≈ 7.32 µM)
59 | O=C(Cc1ccccc1)NCC(=O)Nc1ccccc1Br | 51.4 (≈ 148 µM)
